Molecular target: T1, MGL (Rattus norvegicus, UniProt Q8R431)
T1 construct: one g rat brain was homogenized
T1 sequence (Q8R431 1-303): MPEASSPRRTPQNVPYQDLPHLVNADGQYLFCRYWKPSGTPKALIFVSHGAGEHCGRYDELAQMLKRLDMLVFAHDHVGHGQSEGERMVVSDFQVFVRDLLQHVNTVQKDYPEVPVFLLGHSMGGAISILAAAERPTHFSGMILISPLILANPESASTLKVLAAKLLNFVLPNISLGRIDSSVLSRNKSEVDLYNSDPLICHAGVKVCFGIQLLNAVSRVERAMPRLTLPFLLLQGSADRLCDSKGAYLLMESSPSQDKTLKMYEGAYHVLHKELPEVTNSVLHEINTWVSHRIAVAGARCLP
Assay: 2-AG Accumulation Assay (rat brain homogenate)
Format: biochemical
Conditions: percent of vehicle 2-AG accumulation; for Rat Brain 2AG % VehCntrl (%) @10 μM: compound 10 μM; for Rat Brain 2AG % VehCntrl (%) @1 μM: compound 1 μM

| SMILES | Rat Brain 2AG % VehCntrl (%) @10 μM | Rat Brain 2AG % VehCntrl (%) @1 μM |
| --- | --- | --- |
| O=C(c1ccc(SCc2cccc(Cl)c2Cl)cc1)N1CC(N2CCN(C(=O)c3nccs3)CC2)C1 [Cpd 413, 1-[1-({4-[(2,3-Dichlorobenzyl)sulfanyl]phenyl}carbonyl)azetidin-3-yl]-4-(1,3-thiazol-2-ylcarbonyl)piperazine] | 1693% | – |
| O=C(c1ccc(SCc2ccc(Cl)c(Cl)c2)cc1)N1CC(N2CCN(C(=O)c3nccs3)CC2)C1 [Cpd 414, 1-[1-({4-[(3,4-Dichlorobenzyl)sulfanyl]phenyl}carbonyl)azetidin-3-yl]-4-(1,3-thiazol-2-ylcarbonyl)piperazine] | 1608% | – |
| O=C(c1ccc(SCc2ccc(Cl)cc2)cc1)N1CC(N2CCN(C(=O)c3nccs3)CC2)C1 [Cpd 415] | 1629% | – |
| O=C(c1ccc(CSc2cccc(Cl)c2)cc1)N1CC(N2CCN(C(=O)c3nccs3)CC2)C1 [Cpd 454] | – | 1066% |
| O=C(c1ccc(CNc2cccc(Cl)c2)cc1)N1CC(N2CCN(C(=O)c3nccs3)CC2)C1 [Cpd 455] | – | 1013% |
| O=C(c1ccccc1)N1CCN(C2CN(C(=O)c3ccc(NCc4ccc(F)c(C(F)(F)F)c4)cc3)C2)CC1 [Cpd 494, N-[4-Fluoro-3-(trifluoromethyl)benzyl]-4-({3-[4-(phenylcarbonyl)piperazin-1-yl]azetidin-1-yl}carbonyl)aniline] | 1121% | – |
| COc1c(C(=O)N2CC(N3CCN(C(=O)c4nccs4)CC3)C2)sc2cc(C(F)(F)F)ccc12 [Cpd 649, 1-(1-{[3-Methoxy-6-(trifluoromethyl)-1-benzothiophen-2-yl]carbonyl}azetidin-3-yl)-4-(1,3-thiazol-2-ylcarbonyl)piperazine] | – | 1017% |
| O=C(c1ccc2nc(N3CCC(F)(F)CC3)sc2c1)N1CC(N2CCN(C(=O)c3nccs3)CC2)C1 [Cpd 671] | – | 1035% |
| O=C(c1ccc(Oc2cccc(Cl)c2)c(F)c1)N1CC(N2CCN(C(=O)c3nccs3)CC2)C1 [Cpd 875] | 1285% | – |
| O=C(c1ccc2c(c1)CCN(Cc1cccc(C(F)(F)F)c1)C2)N1CC(N2CCN(C(=O)c3nccs3)CC2)C1 [Cpd 879] | – | 1027% |
| O=C(c1nccs1)N1CCN(C2CN(C(=O)c3sc4cc(C(F)(F)F)ccc4c3F)C2)CC1 [Cpd 895, 1-(1-{[3-Fluoro-6-(trifluoromethyl)-1-benzothiophen-2-yl]carbonyl}azetidin-3-yl)-4-(1,3-thiazol-2-ylcarbonyl)piperazine] | – | 1207% |
| Cc1c(C(=O)N2CC(N3CCN(C(=O)c4nccs4)CC3)C2)sc2ccc(C(F)(F)F)cc12 [Cpd 897] | – | 1234% |
| Cc1c(C(=O)N2CC(N3CCN(C(=O)c4nccs4)CC3)C2)sc2cc(C(F)(F)F)ccc12 [Cpd 899, 1-(1-{[3-Methyl-6-(trifluoromethyl)-1-benzothiophen-2-yl]carbonyl}azetidin-3-yl)-4-(1,3-thiazol-2-ylcarbonyl)piperazine] | – | 1092% |
| O=C(c1ccc2c(c1)CCN(S(=O)(=O)c1ccc(C(F)(F)F)cc1)C2)N1CC(N2CCN(C(=O)c3nccs3)CC2)C1 [Cpd 928] | – | 1207% |
| O=C(c1ccc(OCc2cccc(Cl)c2)cc1)N1CC(N2CCN(C(=O)c3nccs3)CC2)C1 [Cpd 957] | – | 1442% |
| O=C(c1ccc(OCc2ccc(Cl)s2)cc1)N1CC(N2CCN(C(=O)c3nccs3)CC2)C1 [Cpd 962] | – | 1213% |
| O=C(c1ccc(OCc2ccc3ccccc3n2)cc1)N1CC(N2CCN(C(=O)c3nccs3)CC2)C1 [Cpd 967] | – | 1373% |
| O=C(c1ccc(Cc2ccc(C(F)(F)F)cc2)cc1)N1CC(N2CCN(C(=O)c3nccs3)CC2)C1 [Cpd 985] | – | 1116% |

| SMILES | Rat Brain 2AG % VehCntrl (%) @10 μM | Rat Brain 2AG % VehCntrl (%) @1 μM |
| --- | --- | --- |
| O=C(c1ccc2c(c1)CCN2Cc1ccccc1)N1CC(N2CCN(C(=O)c3nccs3)CC2)C1 [Cpd 994, 1-Benzyl-5-({3-[4-(1,3-thiazol-2-ylcarbonyl)piperazin-1-yl]azetidin-1-yl}carbonyl)-2,3-dihydro-1H-indole] | – | 1014% |
| O=C(c1ccc(Cc2cccc(C(F)(F)F)c2)cc1)N1CC(N2CCN(C(=O)c3nccs3)CC2)C1 [Cpd 995] | – | 1080% |
| Cc1c(Cc2ccc(C(F)(F)F)cc2)cccc1C(=O)N1CC(N2CCN(C(=O)c3nccs3)CC2)C1 [Cpd 1008] | – | 1125% |
| O=C(c1nn(-c2ccc(Cl)cc2Cl)c2c1CCC/C2=C\c1ccc(Cl)cc1)N1CC(N2CCN(C(=O)C(F)(F)F)CC2)C1 [Cpd 1020] | – | 135% |
| Cn1cc(Cc2ccc(F)cc2)c2ccc(C(=O)N3CC(N4CCN(C(=O)c5nccs5)CC4)C3)cc21 [Cpd 1026] | – | 1014% |
| Cc1cn(-c2ccccc2)c2ccc(C(=O)N3CC(N4CCN(C(=O)c5nccs5)CC4)C3)cc12 [Cpd 1054] | – | 1008% |
| Cn1cc(-c2cccc(C(F)(F)F)c2)c2ccc(C(=O)N3CC(N4CCN(C(=O)c5cscn5)CC4)C3)cc21 [Cpd 1084] | – | 1165% |
| Cn1cc(-c2cccc(C(F)(F)F)c2)c2ccc(C(=O)N3CC(N4CCN(C(=O)c5nccs5)CC4)C3)cc21 [Cpd 1100] | – | 1133% |
| O=C(c1ccc2nc(-c3ccccc3)sc2c1)N1CC(N2CCN(C(=O)c3nccs3)CC2)C1 [Cpd 1125, 2-Phenyl-6-({3-[4-(1,3-thiazol-2-ylcarbonyl)piperazin-1-yl]azetidin-1-yl}carbonyl)-1,3-benzothiazole] | – | 1228% |
| Cn1cc(-c2ccccc2)c2ccc(C(=O)N3CC(N4CCN(C(=O)c5nccs5)CC4)C3)cc21 [Cpd 1132, 1-Methyl-3-phenyl-6-({3-[4-(1,3-thiazol-2-ylcarbonyl)piperazin-1-yl]azetidin-1-yl}carbonyl)-1H-indole] | – | 1259% |
| Cn1cc(-c2cccc(F)c2)c2ccc(C(=O)N3CC(N4CCN(C(=O)c5nccs5)CC4)C3)cc21 [Cpd 1142] | – | 1314% |
| O=C(c1ccc2nc(-c3cccc(C(F)(F)F)c3)oc2c1)N1CC(N2CCN(C(=O)c3nccs3)CC2)C1 [Cpd 1158, 6-({3-[4-(1,3-Thiazol-2-ylcarbonyl)piperazin-1-yl]azetidin-1-yl}carbonyl)-2-[3-(trifluoromethyl)phenyl]-1,3-benzoxazole] | – | 1623% |
| O=C(c1ccc2c(ccn2-c2ncccn2)c1)N1CC(N2CCN(C(=O)c3nccs3)CC2)C1 [Cpd 1174, 1-Pyrimidin-2-yl-5-({3-[4-(1,3-thiazol-2-ylcarbonyl)piperazin-1-yl]azetidin-1-yl}carbonyl)-1H-indole] | – | 1021% |
| Cn1cc(-c2ccc(F)cc2)c2ccc(C(=O)N3CC(N4CCN(C(=O)c5nccs5)CC4)C3)cc21 [Cpd 1318, 3-(4-Fluorophenyl)-1-methyl-6-({3-[4-(1,3-thiazol-2-ylcarbonyl)piperazin-1-yl]azetidin-1-yl}carbonyl)-1H-indole] | – | 1282% |
| O=C(c1ccc2c(-c3cccc(F)c3)c[nH]c2c1)N1CC(N2CCN(C(=O)c3nccs3)CC2)C1 [Cpd 1319] | – | 1276% |
| O=C(c1ccc(-c2nc(-c3ccccc3Cl)cs2)cc1)N1CC(N2CCN(C(=O)c3nccs3)CC2)C1 [Cpd 1328] | – | 1086% |
| O=C(c1ccc(-c2nc(-c3cccc(C(F)(F)F)c3)cs2)cc1)N1CC(N2CCN(C(=O)c3nccs3)CC2)C1 [Cpd 1332] | – | 1168% |

Reference: patent US8697683B2, “Azetidinyl diamides as monoacylglycerol lipase inhibitors” (Janssen Pharmaceutica, NV, priority 2009, dated 2014)
